Experiments:
Assay in all cases: relative viability (nuclei count vs DMSO), 5 days (fraction); higher = more cells survive
[1] = compound: COC1=CC=C(C=C1)CN2C=CC3=C2C=C(C=C3)C(=O)NO + Nc1ncn([C@H]2C[C@H](O)[C@@H](CO)O2)c(=O)n1 [Decitabine] (partner 2 µM)
Outline: (§1)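 Lung cancer cell lines were seeded in 1536-well plates and dosed by pin tool the next day, with either a single drug or a fixed anchor-drug dose combined with five library-drug doses (not always all listed) spaced in √10 steps. Five days later, one step fixed the cells and stained their nuclei (final 0.05% Triton X-100, 1% formaldehyde, 1 ug/ml Hoechst), and nuclei were counted on 4× images. Relative viability is the nuclei count in treated wells divided by the count in vehicle wells, and each value is the median of duplicate plates.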

[2] = compound: COC1=CC=C(C=C1)CN2C=CC3=C2C=C(C=C3)C(=O)NO + COc1cccc2cc(-c3nc([C@H]4CC[C@H](C(=O)O)CC4)n4ncnc(N)c34)[nH]c12 [OSI-027] (partner 0.5 µM)
Outline: as §1

[3] = compound: C[C@]1(c2nc3c(C(N)=O)cccc3[nH]2)CCCN1 [Veliparib] + COc1cccc2cc(-c3nc([C@H]4CC[C@H](C(=O)O)CC4)n4ncnc(N)c34)[nH]c12 [OSI-027] (partner 0.5 µM)
Outline: as §1

[4] = compound: COC1=CC=C(C=C1)CN2C=CC3=C2C=C(C=C3)C(=O)NO + C[C@@H](Oc1cc(-c2cnn(C3CCNCC3)c2)cnc1N)c1c(Cl)ccc(F)c1Cl [Crizotinib] (partner 1 µM)
Outline: as §1

Cell Line	relative viability ([1]; first compound 0.08 µM)	relative viability ([1]; first compound 0.253 µM)	relative viability ([1]; first compound 0.8 µM)	relative viability ([1]; first compound 2.53 µM)	relative viability ([1]; first compound 8 µM)	relative viability ([2]; first compound 0.08 µM)	relative viability ([2]; first compound 0.253 µM)	relative viability ([2]; first compound 0.8 µM)	relative viability ([2]; first compound 2.53 µM)	relative viability ([2]; first compound 8 µM)	relative viability ([3]; first compound 0.02 µM)	relative viability ([3]; first compound 0.06325 µM)	relative viability ([3]; first compound 0.2 µM)	relative viability ([3]; first compound 0.6325 µM)	relative viability ([3]; first compound 2 µM)	relative viability ([4]; first compound 0.08 µM)	relative viability ([4]; first compound 0.253 µM)	relative viability ([4]; first compound 0.8 µM)	relative viability ([4]; first compound 2.53 µM)	relative viability ([4]; first compound 8 µM)
HCC-827	0.292	0.271	0.356	0.287	0.308	0.766	0.712	0.81	0.791	0.761	0.763	0.843	0.722	0.552	0.786	0.87	0.968	0.898	0.961	0.878
NCI-H1734		0.507	0.527	0.534	0.48		0.641	0.558	0.608	0.527	0.44	0.575	0.57	0.585	0.67		0.678	0.683	0.6	0.652
NCI-H2087	0.25	0.295	0.288	0.319	0.192	0.626	0.632	0.592	0.561	0.347	0.303	0.475	0.504	0.456	0.539	0.819	0.842	0.993	0.913	0.767
LCLC-103H	0.731	0.812	0.761	0.779	0.681	0.441	0.529	0.534	0.388	0.397	0.464	0.434	0.462	0.466	0.5	1.1	0.94	1.15	0.984	1.02
NCI-H1299																0.947	0.978	0.967	0.943	0.959
RERF-LC-KJ	0.74	0.675	0.645	0.738	0.599	0.589	0.594	0.662	0.617	0.495	0.39	0.455	0.634	0.538	0.57	0.618	0.756	0.864	0.816	0.814
PC-3 [JPC-3]	0.764		0.775	0.833	0.832	0.766	0.781	0.726	0.813	0.761	0.773	0.74	0.813	0.755	0.755	0.969	1.02	1.02	1.05	0.965
EKVX		0.327	0.378	0.372	0.415	0.669	0.653	0.72	0.72	0.64	0.629	0.646	0.63	0.639	0.675	0.767	0.762	1.16	0.891	0.934
NCI-H520	0.517	0.481	0.484	0.495	0.551	0.218	0.278	0.329	0.319	0.279	0.224	0.309	0.276	0.231	0.234	0.321	0.834	0.776	0.723	0.736
NCI-H2228							0.536	0.594	0.729	0.473	0.529	0.569	0.56	0.486	0.551	0.45	0.549	0.535	0.492	0.423
EBC-1																	0.183	0.201	0.179	0.181
NCI-H2342	0.76	0.733	0.707	0.799	0.769	0.61	0.66	0.603	0.57	0.655	0.586	0.558	0.649	0.687	0.572					
NCI-H1703																0.158	0.552	0.619	0.637	0.72
NCI-H522		0.649	0.606	0.63	0.765		0.611	0.746	0.733	0.718	0.679	0.731	0.888	0.689	0.732					
NCI-H1563						0.626	0.812	0.739	0.724	0.712	0.672	0.741	0.799	0.751	0.77	0.718	0.847	0.957	0.921	0.943
NCI-H1648	0.435	0.553	0.554	0.539	0.46	0.246	0.245	0.246	0.262	0.246	0.255	0.262	0.249	0.278	0.251					
SW 900	0.441	0.403	0.446	0.423	0.411	0.559	0.533	0.63	0.622	0.447			0.675	0.582	0.413					
NCI-H1395		0.701	0.758	0.842	0.618	0.562	0.579	0.628	0.667	0.549	0.494	0.576	0.548	0.579	0.523					
IA-LM																0.618	0.806	0.834	1.02	0.694
NCI-H1793		0.678	0.592	0.662	0.286		0.296	0.267	0.328	0.248	0.317	0.265	0.31	0.286	0.262					
A549	0.187	0.264	0.286	0.235	0.374												0.767	0.855	0.617	0.63
CAL-12T						0.723	0.643	0.563	0.71	0.642	0.62	0.629	0.604	0.584	0.657	0.474	0.616	0.702	0.686	0.542

From the supplement of paper PMC10307832
